assay: Modulation of capsid assembly in HBV infected in human HepG2.2.15 cells assessed as inhibition of viral DNA replication preincubated for 3 days followed by replacement with fresh medium containing compound and measured after 3 days by QuantiGene assay

Going from `CCOC(=O)c1n[nH]c2c1CN(C(=O)Nc1cccc(Cl)c1)CC2` to `CCCC(=O)c1n[nH]c2c1CN(C(=O)Nc1cccc(Cl)c1)CC2` [US10189835, Compound 561], the EC50 falls from 260 nM to 68 nM (3.8-fold). The second is the more potent here.

Compared with `CCN(C)C(=O)c1n[nH]c2c1CN(C(=O)Nc1cccc(Cl)c1)CC2`, `CCN(OC)C(=O)c1n[nH]c2c1CN(C(=O)Nc1cccc(Cl)c1)CC2` [US10189835, Compound 594] is 4.6-fold lower in EC50: 410 nM for the first, 90 nM for the second.

First: CONC(=O)c1n[nH]c2c1CN(C(=O)Nc1cccc(Cl)c1)CC2
Second: CON(C)C(=O)c1n[nH]c2c1CN(C(=O)Nc1cccc(Cl)c1)CC2 [US10189835, Compound 434]
The EC50 of the first is 7.4-fold higher: 400 nM for the first, 54 nM for the second.

`O=C(Nc1cccc(Cl)c1)N1CCc2[nH]nc(C(=O)N3CCCCO3)c2C1` and `O=C(Nc1cccc(Cl)c1)N1CCc2[nH]nc(C(=O)N3CCCO3)c2C1` [US10189835, Compound 699] are within 1.5-fold of each other in EC50: 100 nM for the first, 120 nM for the second.

Compared with `CN(OC1COC1)C(=O)c1n[nH]c2c1CN(C(=O)Nc1cccc(Cl)c1)CC2`, `CN(OC1CCOC1)C(=O)c1n[nH]c2c1CN(C(=O)Nc1cccc(Cl)c1)CC2` (centres undefined) [US10189835, Compound 910] is 12-fold higher in EC50: 24 nM for the first, 300 nM for the second. The first is the more potent here.

Compared with `CN(OC1CCCOC1)C(=O)c1n[nH]c2c1CN(C(=O)Nc1cccc(Cl)c1)CC2` (centres undefined), `CN(OC1CCC1)C(=O)c1n[nH]c2c1CN(C(=O)Nc1cccc(Cl)c1)CC2` [US10189835, Compound 805] is 3.8-fold lower in EC50: 370 nM for the first, 97 nM for the second.

`C[C@@H]1Cc2nn3c(c2CN1C(=O)Nc1ccc(F)c(Cl)c1)C(=O)N(C)O[C@@H](CO)C3` and `C[C@@H]1Cc2nn3c(c2CN1C(=O)Nc1ccc(F)c(Cl)c1)C(=O)N(C)O[C@H](CO)C3` are the same in EC50: 4 nM for the first, 4 nM for the second.

`C[C@@H]1Cc2nn3c(c2CN1C(=O)Nc1ccc(F)c(C(F)(F)F)c1)C(=O)N(C)O[C@@H](CO)C3` and `Cc1cc(NC(=O)N2Cc3c(nn4c3C(=O)N(C)O[C@@H](CO)C4)C[C@H]2C)ccc1F` are within 1.5-fold of each other in EC50: 2.7 nM for the first, 3.4 nM for the second.

`C[C@@H]1Cc2nn3c(c2CN1C(=O)Nc1ccc(F)c(C#N)c1)C(=O)N(C)O[C@@H](CO)C3` and `C[C@@H]1Cc2nn3c(c2CN1C(=O)Nc1ccc(F)c(C#N)c1)C(=O)N(C)O[C@@H](CF)C3` are within 1.5-fold of each other in EC50: 7.3 nM for the first, 6 nM for the second.

`C[C@@H]1Cc2nn3c(c2CN1C(=O)Nc1ccc(F)c(C#N)c1)C(=O)N(C)OCC3` and `C[C@@H]1Cc2nn3c(c2CN1C(=O)Nc1ccc(F)c(C#N)c1)C(=O)N(C)O[C@@H](COCC(F)F)C3` are within 1.5-fold of each other in EC50: 5.3 nM for the first, 5 nM for the second.

First: C[C@@H]1Cc2nn3c(c2CN1C(=O)Nc1ccc(F)c(Cl)c1)C(=O)N(C)O[C@@H](CN(C)C)C3
Second: C[C@H]1Cc2nn3c(c2CN1C(=O)Nc1ccc(F)c(Cl)c1)C(=O)N(C)O[C@H](CO)C3
The EC50 of the first is 10-fold lower: 21 nM for the first, 216 nM for the second.

Compared with `C[C@@H]1Cc2nn3c(c2CN1C(=O)Nc1ccc(F)c(C#N)c1)C(=O)N(C)O[C@@H](C(=O)N(C)CC(F)F)C3`, `C[C@H]1Cc2nn3c(c2CN1C(=O)Nc1ccc(F)c(Cl)c1)C(=O)N(C)O[C@@H](CO)C3` is 10-fold higher in EC50: 5.3 nM for the first, 54 nM for the second. The first is the more potent here.

Compared with `CN1O[C@@H](CO)Cn2nc3c(c2C1=O)CN(C(=O)Nc1ccc(F)c(Cl)c1)CC3`, `CN1O[C@H](CO)Cn2nc3c(c2C1=O)CN(C(=O)Nc1ccc(F)c(Cl)c1)CC3` is 3.8-fold higher in EC50: 4 nM for the first, 15 nM for the second. The first is the more potent here.

First: CON(C)C(=O)c1n[nH]c2c1CN(C(=O)Nc1cccc(Cl)c1)[C@@H](C)C2
Second: CON(C)C(=O)c1n[nH]c2c1CN(C(=O)Nc1cccc(Cl)c1)[C@H](C)C2
The EC50 of the first is 11-fold lower: 31 nM for the first, 330 nM for the second. The first is the more potent here.

Compared with `CON(C(=O)c1n[nH]c2c1CN(C(=O)Nc1cccc(Cl)c1)CC2)C(C)C` [US10189835, Compound 595], `CC(C)ON(C)C(=O)c1n[nH]c2c1CN(C(=O)Nc1cccc(Cl)c1)CC2` [US10189835, Compound 600] is 3.7-fold lower in EC50: 210 nM for the first, 57 nM for the second. The second is the more potent here.

Going from `CCON(C)C(=O)c1n[nH]c2c1CN(C(=O)Nc1cccc(Cl)c1)CC2` [US10189835, Compound 599] to `CCCON(C)C(=O)c1n[nH]c2c1CN(C(=O)Nc1cccc(Cl)c1)CC2` [US10189835, Compound 795], the EC50 rises from 63 nM to 210 nM (3.3-fold).

`CN(OCCO)C(=O)c1n[nH]c2c1CN(C(=O)Nc1cccc(Cl)c1)CC2` [US10189835, Compound 796] and `CN1CC(ON(C)C(=O)c2n[nH]c3c2CN(C(=O)Nc2cccc(Cl)c2)CC3)C1` [US10189835, Compound 912] are within 1.5-fold of each other in EC50: 155 nM for the first, 200 nM for the second.

— BindingDB's records for doi:10.1016/j.bmcl.2021.128353 (Novira Therapeutics, 2021)
